Measured values reported in US11427575B2, “Antitumor compound for activating JWA gene and degrading HER2, preparation method thereof, and application thereof” (SIMCERE PHARMACEUTICAL CO., LTD., priority 2019, dated 2022).

System: promoter of JWA gene
Assay: Luciferase reporter gene under control of JWA gene promoter in HBE cells (high-throughput screening)
Assay type: cell-based, human
Conditions: 48 h
From the text: High-throughput screening (HTS) was used to identify the human bronchial epithelial (HBE) cells stably transfected with a DNA construct with a luciferase gene under control of a 2,000 bp long promoter of JWA gene.
FIG. 1 is a sequence containing the 2000 bp promoter sequence of JWA gene that was used for a luciferase reporter gene plasmid construction.

SMILES | fluorescence intensity of reporter gene (0.05 μg/mL) | fluorescence intensity of reporter gene (0.10 μg/mL) | fluorescence intensity of reporter gene (0.21 μg/mL) | fluorescence intensity of reporter gene (0.41 μg/mL) | fluorescence intensity of reporter gene (0.83 μg/mL) | fluorescence intensity of reporter gene (1.65 μg/mL) | fluorescence intensity of reporter gene (3.30 μg/mL)
COc1ccc(OC)c2sc(Nc3nc4c(C(F)(F)F)cccc4s3)nc12 [JAC1016, 4,7-dimethoxyn-(4-(trifluoromethyl)benzene (d)thiazole-2-group) benzene (d) thiazole-2-amine] | 14360.00 | 16238.00 | 19226.00 | 24518.00 | 28746.00 | 32253.33 | 36361.67
COc1cc(OC)c2nc(Nc3nc4c(C(F)(F)F)cccc4s3)sc2c1 [JAC1017, 4,6-dimethoxyn-(4-(trifluoromethyl)benzo (d)thiazole-2-group) benzo (d) thiazole-2-amine] | 12910.00 | 13086.67 | 14460.00 | 17188.00 | 22680.00 | 28406.00 | 37426.00
COc1cc(OC)c2nc(Nc3nc4c(F)cccc4s3)sc2c1 [JAC1015, N-(4-fluorobenzoyl (d)thiazole-2-group)-4,6-dimethoxy benzozoyl (d) thiazole-2-amine] | 14335.33 | 15573.33 | 18260.67 | 22168.67 | 28162.67 | 30168.67 | 37663.33
COc1cccc2sc(Nc3nc4c(F)cc(F)cc4s3)nc12 [JAC1012, 4,6-difluoro-n-(4-methoxylbenzene (d)thiazole-2-group) benzene (d) thiazole-2-amine] | 13448.67 | 13518.67 | 16205.00 | 19768.67 | 25237.33 | 33228.00 | 41139.33
COc1cccc2sc(Nc3nc4c(C(F)(F)F)cccc4s3)nc12 [JAC1013, 4-methoxy-N-(4-(trifluoromethyl)benzo (d)thiazole-2-group) benzo (d) thiazole-2-amine] | 13315.33 | 12346.00 | 14926.00 | 16036.67 | 20014.00 | 26261.67 | 35332.33
COc1ccc(OC)c2sc(Nc3nc4c(F)cccc4s3)nc12 [JAC1014, N-(4-fluorobenzoyl (d)thiazole-2-group)-4,7-dimethoxy benzozoyl (d) thiazole-2-amine] | 13835.33 | 14254.00 | 15262.67 | 18680.00 | 22088.00 | 28702.00 | 37664.67
COc1cccc2sc(Nc3nc4c(F)ccc(F)c4s3)nc12 [JAC1011, 4,7-difluoro-n-(4-methoxybenzo-thiazole-2-group) benzoylthiazole-2-amine] | 13255.33 | 13553.33 | 15397.33 | 19835.00 | 25886.67 | 31413.33 | 39676.33
